Test results: patent US7695899B2, “Methods of identifying and using chemotherapeutic agents” (The Regents of the University of Colorado, a body corporate, priority 2003, dated 2010)

System: irradiated grp mutant larvae
Test: Survival screen of irradiated and non-irradiated grp mutant and wild-type larvae
Assay type: in vivo, Drosophila melanogaster
Details: colchicine 1.3 μM in cornmeal-agar food; 4,000 Rads of X-rays; cumulative results of three screens; FIG. 1
Procedure: To obtain correctly aged larvae, embryos are collected at Day 0 from wild-type and grp mutant heterozygous adults for approximately 4 hours in the late afternoon or early evening 4 days prior to experiment. The embryos are allowed to hatch into larvae and the larvae are allowed to develop. The grp mutant heterozygote adults carry a grp mutation on one chromosome and a wild-type grp gene on a balancer chromosome. The balancer chromosome also carries a Green Fluorescent Protein (GFP) transgene.
In the morning of Day 4, food is washed from larvae by using stacked sieves (VWR; USA Standard Testing Sieve: 850, 600, 425, 180 micrometer). […]
At Day 9, the total number of pupae formed are counted (this gives the percentage of larvae that survived into pupae). In the vials with progeny from grp heterozygous parents, the grp heterozygous pupae and the wild-type pupae are identified by virtue of their expression of GFP and are not counted. At Day 14, the number of empty pupae are counted (indicating the number of pupae that eclosed into adults).
Survival is expressed as the percentage of larvae that form pupae, and the percentage of pupae that eclose into adults. […]

For `COc1cc2c(c(OC)c1OC)-c1ccc(OC)c(=O)cc1[C@@H](NC(C)=O)CC2` [colchicine], which “survival of irradiated grp mutant larvae (grp+R) relative to non-irradiated grp mutant larvae (grp-R), wild-type irradiated larvae (SEV+R) and wild-type non-irradiated larvae (SEV-R)” value is on record?
The value was “selectively reduces the survival”.
